This note sets out measurements from publication PMC10790790, “Viscosity-dependent determinants of Campylobacter jejuni impacting the velocity of flagellar motility” (mBio, 2023).

The target of test [1] is T1, WspR (Pseudomonas aeruginosa, UniProt Q9HXT9).
T1 construct: codon 2 to penultimate codon, from pVL791, C-terminal Myc-6xHis tag kept, pBAD/myc-HisA (pDAR6535), E. coli Top10
Briefly: DRaCALA on nitrocellulose; also TLC of c-di-GMP synthesis. The test is classed as biochemical. To be noted: labelled compound ([alpha-32P]GTP); 10 mM Tris-HCl pH 8, 100 mM NaCl, 5 mM MgCl2 (DRaCALA); 10 mM MgCl2, room temperature (TLC).

A further test deals with T2, CbrR (Campylobacter jejuni, UniProt Q0PAM5).
T2 construct: codon 2 to penultimate codon, C-terminal Myc-6xHis tag kept, pBAD/myc-HisA (pDAR6203), E. coli Top10
Briefly: DRaCALA on nitrocellulose. In kind it is binding. Particulars: 10 mM Tris-HCl pH 8, 100 mM NaCl, 5 mM MgCl2.

Test [2] concerns the target T1, WspR. Briefly: DRaCALA on nitrocellulose. Particulars: labelled compound ([32P]c-di-GMP made by WspR); 10 mM Tris-HCl pH 8, 100 mM NaCl, 5 mM MgCl2. In kind it is biochemical.

T1 sequence (Q9HXT9 entry or part of it): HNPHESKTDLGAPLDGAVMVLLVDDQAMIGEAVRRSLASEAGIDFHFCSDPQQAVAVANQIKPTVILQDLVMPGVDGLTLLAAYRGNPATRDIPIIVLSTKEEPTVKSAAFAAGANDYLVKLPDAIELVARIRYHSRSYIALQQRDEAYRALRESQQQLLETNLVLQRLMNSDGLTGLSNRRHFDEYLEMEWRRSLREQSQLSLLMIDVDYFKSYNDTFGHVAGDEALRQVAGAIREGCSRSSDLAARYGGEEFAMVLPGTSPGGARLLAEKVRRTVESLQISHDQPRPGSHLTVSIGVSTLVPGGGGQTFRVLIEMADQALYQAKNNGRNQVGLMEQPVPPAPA
T2 sequence (Q0PAM5 entry or part of it): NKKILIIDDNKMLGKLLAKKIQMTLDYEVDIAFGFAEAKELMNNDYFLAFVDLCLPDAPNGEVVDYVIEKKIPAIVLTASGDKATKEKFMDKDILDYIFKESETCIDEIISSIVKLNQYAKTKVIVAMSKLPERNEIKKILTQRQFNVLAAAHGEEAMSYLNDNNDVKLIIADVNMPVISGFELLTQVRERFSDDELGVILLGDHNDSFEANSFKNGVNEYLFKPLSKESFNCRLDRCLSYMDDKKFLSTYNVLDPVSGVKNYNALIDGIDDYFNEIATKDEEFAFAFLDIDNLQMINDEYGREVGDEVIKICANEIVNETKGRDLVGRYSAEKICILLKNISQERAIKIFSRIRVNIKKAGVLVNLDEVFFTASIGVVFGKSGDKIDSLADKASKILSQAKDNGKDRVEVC

On to `Nc1nc2c(ncn2[C@@H]2O[C@H](COP(=O)(O)OP(=O)(O)OP(=O)(O)O)[C@@H](O)[C@H]2O)c(=O)[nH]1` [GTP], for which the “DRaCALA on nitrocellulose; also TLC of c-di-GMP synthesis” value on WspR [1] is “recombinant WspR and CbrR bound both GTP and c-di-GMP, but VidA and VidB did not”. Moreover, the DRaCALA on nitrocellulose result at CbrR (labelled compound ([alpha-32P]GTP)) is “recombinant WspR and CbrR bound both GTP and c-di-GMP, but VidA and VidB did not”.

In the case of `Nc1nc2c(ncn2[C@@H]2O[C@@H]3COP(=O)(O)O[C@H]4[C@@H](O)[C@H](n5cnc6c(=O)[nH]c(N)nc65)O[C@@H]4COP(=O)(O)O[C@H]3[C@H]2O)c(=O)[nH]1` [c-di-GMP], the DRaCALA on nitrocellulose result was “recombinant WspR and CbrR bound both GTP and c-di-GMP, but VidA and VidB did not” on CbrR (labelled compound ([32P]c-di-GMP made by WspR)); “recombinant WspR and CbrR bound both GTP and c-di-GMP, but VidA and VidB did not” at WspR [2].
